{"source": "patent US20120225889A1", "about": "“USE OF MACROCYCLIC LACTONE DERIVATIVES FOR THE TREATMENT OF INFLAMMATORY DISORDERS” (PIRAMAL LIFE SCIENCES LIMITED, priority 2010, published 2012)", "format_in_all_cases": "cell-based", "key": {"[1]": {"test_system": "IL-6", "experiment": "Human monocyte assay (LPS-induced): IL-6", "details": "LPS stimulated human monocytes, 5 h", "excerpt": "(§1) The assay was designed as in reference, Physiological Research, 52, 593-598, (2003), the disclosure of which is incorporated by reference for the teaching of the assay.\n(§2) The objective of the assay is to determine whether compounds of the present invention—mediated inhibition of LPS-induced cytokines from monocytic THP-1 cell line translates to physiologically relevant human cells. Accordingly, the effect of compounds of the present invention on LPS—induced cytokine production from freshly isolated human monocytes was ascertained.\nPeripheral blood was collected from healthy donors into potassium EDTA vacutainer tubes (BD Biosciences, USA). hPBMCs were isolated using density gradient separation (Histopaque-1077; Sigma, USA) and suspended in assay medium which is RPMI culture medium (Sigma, USA) containing 10% heat inactivated FBS (JRH Biosciences, Australia), 100 U/mL penicillin (Sigma, USA) and […] streptomycin (Sigma, USA). Monocytes in the hPBMCs were counted using a Coulter Counter following which the cells were resuspended at 2×10^5 monocytes/mL of assay medium. A cell suspension containing 2×10^4 monocytes was aliquoted per well of a 96-well plate (Nunc, USA). Subsequently, the hPBMCs were incubated for 4-5 h at 37° C., 5% CO2. During the incubation, the monocytes adhered to the bottom of 96-well plate. Following the incubation, the non-adherent lymphocytes were washed and assay medium was added to adherent monocytes. After 48 h of incubation at 37° C., 5% CO2, monocytes were pre-treated with various concentrations of test compound (prepared as 20 mM stock in DMSO; 1 μL of […] concentrated solution of test compound was dissolved in 200 μL cell suspension to achieve a final concentration of 0.03, 0.1, 0.3, 1, 3, 10, 30 and 100 μM) or vehicle (0.5% DMSO) or 10 μM dexamethasone (standard IL-6 and TNF-α inhibitor, Sigma, USA) for 30 min at 37° C., 5% CO2 and stimulated with 1 μg/mL LPS (Escherchia coli 0111:B4, Sigma, USA). The cells were then incubated for 5 h at 37° C., 5% CO2 following which supernatants were collected, stored at −70° C. and were assayed later for IL-6, and TNF-α by ELISA (OptiEIA ELISA sets, BD Biosciences, USA). The IC50 values were calculated by a nonlinear regression method using Graph Pad software (Prism 3.03)."}, "[2]": {"test_system": "IL-6", "experiment": "Screening in LPS stimulated THP-1 cells: IL-6", "details": "Homo sapiens, 24 h, ELISA", "experimental": "(§3) IL-6 (BD Biosciences, USA) production by LPS (Escherchia coli 0127:B8, Sigma, USA) in THP-1 cells (ATCC number: TIB202) was designed as in reference, Journal of Immunology, 151, 5631-5638, (1993), the disclosure of which is incorporated by reference for the teaching of the assay.\n(§4) THP-1 cells were cultured in RPMI 1640 culture medium (Gibco BRL, UK) containing 100 U/mL penicillin and […] streptomycin, (100× solution, Sigma, USA) containing 10% FBS (JRH Biosciences, USA). 25,000 cells were seeded per well in 96-well plate (Nunc, USA). The cells were differentiated with PMA (Sigma, USA, prepared as 100 μg/mL stock in RPMI and was diluted to 5 ng/mL). The test compound (prepared as 20 mM stock in DMSO and diluted with DMSO to achieve the following final concentrations in the assay: 100, 10, 1, 0.1, 0.01, 0.001 and 0.0001 μM) or vehicle (0.5% DMSO) were added to the cells and the cells were incubated for 30 min at 37° C. LPS (Sigma, USA, prepared as 1 mg/mL stock in PBS) was added to achieve a final concentration of 1 μg/mL. Plates were incubated at 37° C. for 24 h at 5% CO2. Supernatants were harvested, and assayed for TNF-α and IL-6 by ELISA as described by the manufacturer (BD Biosciences, USA). Percent inhibition of cytokine release compared to the control was calculated. The IC50 values were calculated by a nonlinear regression method."}, "[3]": {"test_system": "TNF-α", "experiment": "Screening in LPS stimulated THP-1 cells: TNF-α", "details": "Homo sapiens, 24 h, ELISA", "experimental": "as §3, §4"}, "[4]": {"test_system": "TNF-α", "experiment": "Human monocyte assay (LPS-induced): TNF-α", "details": "LPS stimulated human monocytes, 5 h", "excerpt": "as §1, §2\nPeripheral blood was collected from healthy donors into potassium EDTA vacutainer tubes (BD Biosciences, USA). hPBMCs were isolated using density gradient separation (Histopaque-1077; Sigma, USA) and suspended in assay medium which is RPMI culture medium (Sigma, USA) containing 10% heat inactivated FBS (JRH Biosciences, Australia), 100 U/mL penicillin (Sigma, USA) and […] streptomycin (Sigma, USA). Monocytes in the hPBMCs were counted using a Coulter Counter following which the cells were resuspended at 2×10^5 monocytes/mL of assay medium. A cell suspension containing 2×10^4 monocytes was aliquoted per well of a 96-well plate (Nunc, USA). Subsequently, the hPBMCs were incubated for 4-5 h at 37° C., 5% CO2. […] The IC50 values were calculated by a nonlinear regression method using Graph Pad software (Prism 3.03)."}, "[5]": {"test_system": "hPBMCs", "experiment": "Lymphocyte proliferation assay (T-cell proliferation of normal hPBMCs)", "details": "Homo sapiens, tritiated thymidine", "excerpt": "The assay method was designed as in references, The Journal of Immunology, 153, 1-9, (1994), and Clinical and Diagnostic Laboratory Immunology, 7, 687-692, (2000), the disclosure of which is incorporated by reference for the teaching of the assay.\nhPBMCs were obtained from healthy donors by centrifugation of heparinized venous blood over Ficoll/Hypaque solution (Histopaque-1077, Sigma, USA). Isolated hPBMCs were suspended in RPMI 1640 culture medium supplemented with 10% FBS and seeded at a density of 50,000 cells/well in a 96-well plate (Nunc, USA). The cells were incubated at 37° C., 5% CO2 for a period of 24 h. These cells were used for the lymphocyte proliferation as well as cytokine release assay.\nThe plated cells were treated with different concentrations of the test compound (prepared as 20 mM stock in DMSO and diluted with DMSO to achieve the following final concentrations in the assay: 100, 10, 1, 0.1, 0.01, 0.001 and 0.0001 μM) and were incubated for 30 min. The cells were then stimulated with 5 ng/mL PMA (Sigma, USA, prepared as 100 μg/mL stock in RPMI and was diluted to 5 ng/mL) and 5 μg/mL PHA (Sigma, USA, prepared as a 1 mg/mL stock in RPMI). The plates were incubated at 37° C., 5% CO2 for 48 h. The cells were treated overnight with 0.1 μCi of tritiated thymidine per well (obtained from BARC, India; prepared as stock of 1 mCi/mL) and was diluted in KRPH buffer to 10 μCi/mL and […] and was added per well to obtain a final concentration 0.1 μCi/well) and at the end of 48 h, the anti-proliferative effect of the compound was measured using the following formula: […]\nControls consisted of hPBMCs with PHA and PMA (Stimulated), hPBMCs with RPMI (Un-stimulated), hPBMCs with FK506 (positive control, Sigma, USA, prepared as 20 mM stock in DMSO and diluted with DMSO to achieve the following final concentrations in the assay: 100, 10, 1, 0.1, 0.01, 0.001 and 0.0001 μM)."}}, "note": "Read-outs that look alike come from different tables or passages of the source.", "data": [{"smiles": "C/C=C/C(O)C(C)/C=C/C(=O)C(C)C(O)C(C)C1OC(=O)/C(OC)=C/C(C)=C/C(C)C(O)C(CC)C(O)C(C)C/C(C)=C/C=C/C1OC", "note": "(stereo not drawn) [Compound of example 6, (3Z,5E,13E,15E)-18-((6E,10E)-3,9-Dihydroxy-4,8-dimethyl-5-oxododeca-6,10-dien-2-yl)-9-ethyl-8,10-dihydroxy-3,17-dimethoxy-5,7,11,13-tetramethyloxacyclooctadeca-3,5,13,15-tetraen-2-one]", "values": [{"measurement": "IC50", "setting": "[1]", "result": 0.6, "unit": "µM"}, {"measurement": "IC50", "setting": "[2]", "result": 0.1, "unit": "µM"}, {"measurement": "IC50", "setting": "[3]", "result": "> 100", "unit": "µM"}, {"measurement": "IC50", "setting": "[4]", "result": 5, "unit": "µM"}]}, {"smiles": "C=CC[C@@H]1/C=C(\\C)C[C@H](C)C[C@H](OC)[C@H]2O[C@@](O)(C(=O)C(=O)N3CCCC[C@H]3C(=O)O[C@H](/C(C)=C/[C@@H]3CC[C@@H](O)[C@H](OC)C3)[C@H](C)[C@@H](O)CC1=O)[C@H](C)C[C@@H]2OC", "note": "[FK506, reference compound]", "values": [{"measurement": "IC50", "setting": "[5]; hPBMCs stimulated with PMA and PHA, read-out: Stimulated hPBMC's IC50 (inhibition of cell proliferation)", "result": "< 0.001", "unit": "µM"}, {"measurement": "IC50", "setting": "[5]; unstimulated hPBMCs, read-out: Unstimulated hPBMC's IC50 (inhibition of cell proliferation)", "result": 2, "unit": "µM"}]}]}
